Test: Scanning electron microscope inspection of encapsulated granules
Format: physicochemical
Settings: SEM
Procedure: NaNO2 granules (food grade E250, BASF) approximately 0.2-1.0 mm and zein (USP30/NF25, Rebain International Ltd) were used as supplied. NaNO2 granules were dried in a commercial oven for 12 hours at 60° C. to remove any residual moisture. NaNO2 granules (500 g) were coated using a pan coating process; zein (10%) was dissolved in a mixture of water (10%) and ethanol (80%). For coatings containing plasticizer, zein (9.9%) was dissolved in a mixture of water (10%) and ethanol (80%) and either glycerol, PVP or PEG 400 were added at 0.1% to make a mixture containing zein and one of the potential plasticizers. To coat the NaNO2, 500 g of granules were placed in a spherical pan, the pan was rotated at 20 revolutions per minute, the liquid encapsulant solution was sprayed onto the granules at one litre per hour while the whole was warmed to 40° C. by warm predried air directed onto the granule bed to progressively evaporate the solvents. Once all coating material was applied the granules continued to be rotated to ensure drying.
NaNO2 coated in each of the four different solutions outlined above as well as uncoated NaNO2 granules were assessed visually using a scanning electron microscope (SEM) (Philips XL30S FEG, Netherlands). Samples were sputter coated with gold for 2 min (Quorum Technologies Polaron SC 7640 sputter coater, England) and viewed at an accelerating voltage of 5 kV. […]

Compound: O=N[O-].[Na+] [Uncoated NaNO2 granules, sodium nitrite]
- aggregation of granules (54x/55x and 250x magnification): strong tendency to aggregate
- surface of granule / coat (cracks) (1000x magnification): covered in surface fissures
